Among the data in patent US20260226065A1, “SUBSTITUTED BENZENE COMPOUND” (DAIICHI SANKYO COMPANY, LIMITED, priority 2023, published 2026) are Kp and IC50 values, retold here.

Data set [1] can be described thus: Pharmacokinetics test in mice (plasma and brain concentration, LC/MS/MS). The class given is in vivo. The note with it: mouse; male BALB/c mice; oral 10 mg/kg; two hours after administration; concentration in brain homogenate standardized with concentration in plasma. The protocol:
Two hours after oral administration of the test compound (10 mg/kg) to male BALB/c mice, blood was collected from the posterior vena cava under isoflurane anesthesia, and plasma was obtained by centrifugation. In addition, the brain was collected after euthanasia by exsanguination, and distilled water was added to the obtained brain sample in an amount four times the wet weight of the brain to prepare a 20% homogenate. The compound concentrations in the obtained plasma and brain homogenate were measured by LC/MS/MS. The central transfer parameter Kp, brain was calculated by standardizing the concentration in the brain homogenate with the concentration in plasma. In the table, Ex indicates the example number. […].

For another data set, the target named is T1, NLRP3 inflammasome (Homo sapiens, UniProt Q96P20).
T1 construct: endogenous in cells; host or cells: THP-1 (human monocyte-derived), PMA-differentiated, Nigericin-stimulated
The experiment in a line: In vitro IL-1β production test (PMA-differentiated THP-1 cells, Nigericin stimulation, AlphaLISA). The data set is classed as cell-based. The settings on record: inhibition of IL-1β production; THP-1 cells differentiated with 200 nM PMA; 0.015 mM Nigericin; 2 hours. In short, it runs like this: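 THP-1 cells were differentiated one day with 200 nM PMA, then given serum-free medium with 0.015 mM nigericin plus compound for 2 h. Supernatant IL-1β was measured by AlphaLISA, with nigericin alone as 0% and unstimulated as 100% inhibition. IC50 came from logistic sigmoid fitting.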
For orientation: Alpha assays give light when donor and acceptor beads are brought close together.

T1 sequence (Q96P20 whole entry): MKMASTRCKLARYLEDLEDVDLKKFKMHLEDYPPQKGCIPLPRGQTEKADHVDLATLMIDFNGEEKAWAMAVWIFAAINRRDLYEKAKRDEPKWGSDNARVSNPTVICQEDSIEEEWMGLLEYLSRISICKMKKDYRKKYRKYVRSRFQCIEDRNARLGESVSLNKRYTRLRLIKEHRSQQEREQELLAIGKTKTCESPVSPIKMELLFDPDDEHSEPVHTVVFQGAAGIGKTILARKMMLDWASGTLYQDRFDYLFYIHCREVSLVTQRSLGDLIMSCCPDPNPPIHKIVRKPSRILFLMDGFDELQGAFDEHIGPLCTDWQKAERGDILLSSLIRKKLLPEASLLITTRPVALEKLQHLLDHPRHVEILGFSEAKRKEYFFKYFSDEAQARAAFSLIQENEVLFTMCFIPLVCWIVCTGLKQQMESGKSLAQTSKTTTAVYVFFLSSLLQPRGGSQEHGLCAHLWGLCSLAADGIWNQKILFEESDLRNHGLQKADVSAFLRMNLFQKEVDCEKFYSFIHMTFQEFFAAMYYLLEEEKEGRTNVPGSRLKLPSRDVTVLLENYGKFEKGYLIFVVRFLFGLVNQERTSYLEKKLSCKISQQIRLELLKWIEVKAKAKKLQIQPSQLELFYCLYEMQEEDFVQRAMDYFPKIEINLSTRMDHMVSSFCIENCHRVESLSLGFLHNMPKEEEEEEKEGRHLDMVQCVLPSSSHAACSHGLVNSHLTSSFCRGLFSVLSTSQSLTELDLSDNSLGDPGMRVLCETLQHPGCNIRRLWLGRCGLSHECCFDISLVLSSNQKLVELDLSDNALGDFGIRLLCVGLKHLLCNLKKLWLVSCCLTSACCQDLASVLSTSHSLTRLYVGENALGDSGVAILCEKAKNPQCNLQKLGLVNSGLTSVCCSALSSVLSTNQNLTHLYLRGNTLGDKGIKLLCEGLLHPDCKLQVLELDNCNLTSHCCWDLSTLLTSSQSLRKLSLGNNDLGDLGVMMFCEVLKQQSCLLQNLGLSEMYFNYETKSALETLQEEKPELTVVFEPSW

For orientation: Kp means tissue or fluid exposure divided by exposure in the circulation. One may read the IC50 as the concentration at which inhibition is half-maximal. `Cc1cc(C(F)(F)F)cc(O)c1-c1cc2c(C)cn([C@H]3C[C@@](C)(O)C3)c2nn1` [Example 4, 2-{7-[(1s,3s)-3-hydroxy-3-methylcyclobutyl]-5-methyl-7H-pyrrolo[2,3-c]pyridazin-3-yl}-3-methyl-5-(trifluoromethyl)phenol] showed a Kp at 2 h in data set [1] of 0.65. At NLRP3 inflammasome, 19.8 nM corresponded to half-maximal inhibition (IC50).
`Cc1cc(C(F)(F)F)cc(O)c1-c1cc2c(OC(F)F)cn([C@H]3C[C@@](C)(O)C3)c2nn1` [Example 21, 2-{5-(difluoromethoxy)-7-[(1s,3s)-3-hydroxy-3-methylcyclobutyl]-7H-pyrrolo[2,3-c]pyridazin-3-yl}-3-methyl-5-(trifluoromethyl)phenol]: the Kp at 2 h in data set [1] was found to be 0.83. Half-maximal inhibition at NLRP3 inflammasome (IC50) was put at 19.8 nM.
In turn, `Cc1cc(C(F)(F)F)cc(O)c1-c1cc2c(F)cn([C@H]3C[C@@](C)(O)C3)c2nn1` [Example 5, 2-{5-fluoro-7-[(1s,3s)-3-hydroxy-3-methylcyclobutyl]-7H-pyrrolo[2,3-c]pyridazin-3-yl}-3-methyl-5-(trifluoromethyl)phenol] yielded a Kp at 2 h in data set [1] of 1.68. For the same molecule, the IC50 at NLRP3 inflammasome came to 31.3 nM.
`Cc1cc(C(F)(F)F)cc(O)c1-c1cc2ccn([C@H]3C[C@@](C)(O)C3)c2nn1` [Example 3, 2-{7-[(1s,3s)-3-hydroxy-3-methylcyclobutyl]-7H-pyrrolo[2,3-c]pyridazin-3-yl}-3-methyl-5-(trifluoromethyl)phenol] yielded a Kp at 2 h in data set [1] of 1.1. Further, half-maximal inhibition at NLRP3 inflammasome (IC50) was put at 52.5 nM.
For the molecule `COc1cn([C@H]2C[C@@](C)(O)C2)c2nnc(-c3c(C)cc(C(F)(F)F)cc3O)cc12` [Example 10, 2-{7-[(1s,3s)-3-hydroxy-3-methylcyclobutyl]-5-methoxy-7H-pyrrolo[2,3-c]pyridazin-3-yl}-3-methyl-5-(trifluoromethyl)phenol], in data set [1], the Kp at 2 h amounted to 0.7. The molecule further yielded an IC50 against NLRP3 inflammasome of 23.7 nM.
Turning to `Cc1cc(Cl)cc(O)c1-c1cc2c(F)cn([C@H]3C[C@@](C)(O)C3)c2nn1` [Example 27, 5-chloro-2-{5-fluoro-7-[(1s,3s)-3-hydroxy-3-methylcyclobutyl]-7H-pyrrolo[2,3-c]pyridazin-3-yl}-3-methylphenol], in data set [1], the Kp at 2 h worked out at 0.92. At NLRP3 inflammasome, the IC50 turned out to be 25.6 nM.
